Results reported in ChEMBL document CHEMBL1151262, “Labdane diterpenes from Aster spathulifolius and their cytotoxic effects on human cancer cell lines” (2005).
≈ marks a conversion by molar mass, not a printed value.

Tests used:
Assay type in all cases: functional
Conditions in all cases: read-out: ED50 (the source's name)
HCT-15 = test: Cytotoxicity against human HCT15 cells by SRB method
SK-OV-3 = test: Cytotoxicity against human SKOV3 cells by SRB method
XF498 = test: Cytotoxicity against human XF498 cells by SRB method
SK-MEL-2 = test: Cytotoxicity against human SK-MEL-2 cells by SRB method
A549 = test: Cytotoxicity against human A549 cells by SRB method

Row | SMILES | EC50 (HCT-15) [µg/mL] | EC50 (SK-OV-3) [µg/mL] | EC50 (XF498) [µg/mL] | EC50 (SK-MEL-2) [µg/mL] | EC50 (A549) [µg/mL]
1 | COc1cccc2c1C(=O)c1c(O)c3c(c(O)c1C2=O)C[C@@](O)(C(=O)CO)C[C@@H]3O[C@H]1C[C@H](N)[C@H](O)[C@H](C)O1 [DOXORUBICIN] | 0.35 (≈ 0.644 µM) | 0.12 (≈ 0.221 µM) | 0.01 (≈ 0.0184 µM) | 0.003 (≈ 0.00552 µM) | 0.012 (≈ 0.0221 µM)
2 | C=C[C@](C)(O)CC[C@H]1C(=C)[C@H](O)C[C@H]2C(C)(C)CCC[C@]12C | > 5 | > 5 | > 5 | > 5 | > 5
3 | C=C[C@@](C)(CC[C@H]1C(C)=CC[C@H]2C(C)(C)CCC[C@]12C)O[C@@H]1O[C@H](C)[C@H](O)[C@H](OC(C)=O)[C@H]1O | 3.8 (≈ 7.94 µM) | 3.8 (≈ 7.94 µM) | 5.1 (≈ 10.7 µM) | 3.5 (≈ 7.31 µM) | 3.6 (≈ 7.52 µM)
4 | COc1cc([C@@H]2c3cc4c(cc3[C@@H](O[C@@H]3O[C@@H]5CO[C@@H](C)O[C@H]5[C@H](O)[C@H]3O)[C@H]3COC(=O)[C@H]23)OCO4)cc(OC)c1O [ETOPOSIDE] | 2.2 (≈ 3.74 µM) | 2.7 (≈ 4.59 µM) | 2.6 (≈ 4.42 µM) | 0.08 (≈ 0.136 µM) | 1.5 (≈ 2.55 µM)
5 | C=C[C@@](C)(CC[C@@H]1[C@@]2(C)CCCC(C)(C)[C@@H]2CC[C@@]1(C)O)O[C@H]1O[C@H](C)[C@H](O)[C@@H](O)[C@@H]1O | > 5 | > 5 | > 5 | > 5 | > 5
6 | C=C[C@@](C)(CC[C@H]1C(C)=CC[C@H]2C(C)(C)CCC[C@]12C)O[C@@H]1O[C@@H](C)[C@@H](OC(C)=O)[C@H](O)[C@H]1O | 3.1 (≈ 6.48 µM) | 3.4 (≈ 7.1 µM) | 3.8 (≈ 7.94 µM) | 3.5 (≈ 7.31 µM) | 3.2 (≈ 6.69 µM)
7 | C=C[C@@](C)(CC[C@H]1C(C)=CC[C@H]2C(C)(C)CCC[C@]12C)O[C@@H]1O[C@H](C)[C@H](OC(C)=O)[C@H](O)[C@H]1O | 4.1 (≈ 8.57 µM) | 5.8 (≈ 12.1 µM) | 8.9 (≈ 18.6 µM) | 3.4 (≈ 7.1 µM) | 3.9 (≈ 8.15 µM)
8 | C=C[C@@](C)(CC[C@H]1C(C)=CC[C@H]2C(C)(C)CCC[C@]12C)O[C@@H]1O[C@@H](C)[C@@H](O)[C@H](O)[C@H]1O | 3.2 (≈ 7.33 µM) | 5.7 (≈ 13.1 µM) | 8.9 (≈ 20.4 µM) | 4.2 (≈ 9.62 µM) | 3.9 (≈ 8.93 µM)
9 | C=C[C@@](C)(CC[C@H]1C(C)=CC[C@H]2C(C)(C)CCC[C@]12C)O[C@@H]1O[C@H](C)[C@H](O)[C@H](O)[C@H]1O | 3.9 (≈ 8.93 µM) | 3.6 (≈ 8.24 µM) | 4.2 (≈ 9.62 µM) | 3.5 (≈ 8.02 µM) | 3.5 (≈ 8.02 µM)
10 | C=C[C@@](C)(O)CC[C@@H]1[C@@]2(C)CCCC(C)(C)[C@@H]2CC[C@@]1(C)O | > 5 | > 5 | > 5 | > 5 | > 5
11 | C=C[C@@]1(C)CC[C@H]2[C@]3(C)CCC[C@@](C)(C(=O)O)[C@H]3CC[C@]2(C)O1 | > 5 | > 5 | > 5 | > 5 | > 5
12 | C=C[C@](C)(O)CC[C@H]1C(C)=CC[C@H]2C(C)(C)CCC[C@]12C | 9.1 (≈ 31.3 µM) | 8.7 (≈ 29.9 µM) | 9.5 (≈ 32.7 µM) | 4.4 (≈ 15.1 µM) | 2.4 (≈ 8.26 µM)
13 | C=C[C@@](C)(CC[C@@H]1[C@@]2(C)CCCC(C)(C)[C@@H]2CC[C@@]1(C)O)O[C@@H]1O[C@H](C)[C@H](O)[C@H](O)[C@H]1O | > 5 | > 5 | > 5 | > 5 | > 5
